Assay results: PMC10507666, “Trifluoromethylthiolation of Tryptophan and Tyrosine Derivatives: A Tool for Enhancing the Local Hydrophobicity of Peptides” (The Journal of Organic Chemistry, 2023)
Counter-ions that a name gives are not always drawn. Residues, ends and D or L forms follow the SMILES beside them.

Legend:
[1] = RP-HPLC retention time of EM-1 analogues (gradient); assay type: physicochemical; details: RP-HPLC analysis, gradient 20% → 60% MeCN + 0.1% TFA in H2O + 0.1% TFA; retention time used as support for enhanced local hydrophobicity
[2] = Chromatographic hydrophobicity index (CHI/HI, ϕ0) determination by isocratic RP-HPLC at pH 7; assay type: physicochemical; details: for Hydrophobicity index (HI): chromatographic, ϕ0 = –log k'w/S, pH 7, 50 mM ammonium acetate in mQ H2O / MeCN (6–22%), linear regression of four log k' values per peptide, UV 254 nm, Figure 1A; for Hydrophobicity index (HI) / k' (retention factor) / log(k'): isocratic RP-HPLC; for k' (retention factor) / log(k'): pH 7, UV 254 nm; for intercept log k'w at MeCN% = 0: linear regression of log k' versus MeCN content, pH 7, 50 mM ammonium acetate, Figure S5; for ΔHI (HI(CF3S)AA – HIAA): shift versus non-fluorinated tripeptide counterpart, chromatographic HI at pH 7
Description: The hydrophobicity index (HI) shift ΔHI (HI(CF3S)AA – HIAA) is an assessment of the contribution of the CF3S substituent to the increase in local hydrophobicity. This method, developed by Valkó et al.,[27] has already been successfully applied to measure the increased local hydrophobicity of peptides containing fluorinated AAs.[6b],[28] This short peptide sequence was chosen to prevent the formation of secondary structures that could affect hydrophobicity (see the Supporting Information, Chapter 6, for details). […] It is noteworthy that the replacement of the Tyr residue with its CF3S-Tyr analogue provides a higher local enhancement of the hydrophobicity (ΔHI = HI(CF3S)Tyr – HITyrca. 12 units) compared to the Trp series (ΔHI = HI(CF3S)Trp – HITrpca. 8 units).
6. Hydrophobicity index determination
The peptides were prepared according to the SPPS general procedure.
The chromatographic hydrophobicity index (CHI) was determined according to the protocols described previously. 17 Experiments were performed at pH 7 using 50 mM ammonium acetate in mQ H2O and MeCN as mobile phase. Peptides 9-12 were dissolved in 50 mM ammonium acetate before injection (25 µL injection volume). Retention factors (k') were determined at λ = 254 nm at various MeCN concentrations ranging from 6–22% (k' = (tR–t0) / […]). Then, log k' was expressed as a function of MeCN content and linear regression was applied to four values per peptide. The intercept log k'w at MeCN% = 0 and the slopes S were extracted from the linear fit for each peptide (correlation coefficient: R2 > 0.99). The isocratic hydrophobicity index (CHI) was calcd for each peptide using the following equation: […]
RP-HPLC analysis: >95% purity; tR = 10.42 min (7% MeCN in ammonium acetate buffer (pH […]
(1 picture or pasted object on this page, not shown here)
Table of retention times (tR), dead times (t0), and calculated log k' and CHI for peptides 9-12 at pH 7: […]
Peptide 12 (22% MeCN in 50 mM ammonium acetate buffer, pH 7, 1 mL/min):
Chromatographic hydrophobicity index C HI (pH 7) of peptides 9-12 […]
Figure S5: RP-HPLC determination of the chromatographic hydrophobicity index CHI for peptides 9-12 at pH 7 by linear regression of log k' values as a function of MeCN content.

[3] = CF3S-tyramine versus tyramine, from pKa values in H2O/D2O 90:10
Description: Figure 1 Biophysical property evaluation.
Finally, we assessed the influence of the CF3S group on the acidity of the vicinal phenol function in a simplified tyramine model carrying an ortho CF3S.

[4] = 6% MeCN in 50 mM ammonium acetate buffer
[5] = 7% MeCN in 50 mM ammonium acetate buffer
[6] = 8% MeCN in 50 mM ammonium acetate buffer
[7] = 9% MeCN in 50 mM ammonium acetate buffer
[8] = 12% MeCN in 50 mM ammonium acetate buffer
[9] = 13% MeCN in 50 mM ammonium acetate buffer
[10] = 14% MeCN in 50 mM ammonium acetate buffer
[11] = 15% MeCN in 50 mM ammonium acetate buffer
[12] = 17% MeCN in 50 mM ammonium acetate buffer
[13] = 18% MeCN in 50 mM ammonium acetate buffer
[14] = 19% MeCN in 50 mM ammonium acetate buffer
[15] = 20% MeCN in 50 mM ammonium acetate buffer
[16] = 21% MeCN in 50 mM ammonium acetate buffer
[17] = 22% MeCN in 50 mM ammonium acetate buffer

Compound: NC(=O)[C@H](Cc1ccccc1)NC(=O)[C@H](Cc1c(SC(F)(F)F)[nH]c2ccccc12)NC(=O)[C@@H]1CCCN1C(=O)[C@@H](N)Cc1ccc(O)cc1 [(CF3S)Trp-EM-1]
- tR [1]: 10.9 min

Compound: NC(=O)[C@H](Cc1ccccc1)NC(=O)[C@H](Cc1c[nH]c2ccccc12)NC(=O)[C@@H]1CCCN1C(=O)[C@@H](N)Cc1ccc(O)c(SC(F)(F)F)c1 [(CF3S)Tyr-EM-1]
- tR [1]: 11.6 min

Compound: NC(=O)[C@H](Cc1ccccc1)NC(=O)[C@H](Cc1c[nH]c2ccccc12)NC(=O)[C@@H]1CCCN1C(=O)[C@@H](N)Cc1ccc(O)cc1 [EM-1, endomorphin-1, reference compound]
- tR [1]: 8.1 min

Compound: CC(C)C[C@H](NC(=O)[C@H](Cc1ccc(O)cc1)NC(=O)[C@H](C)N)C(=O)O [compound 9, TFA·H2N-L-Ala-L-Tyr-L-Leu-OH] (H-Ala-Tyr-Leu-OH)
- Hydrophobicity index (HI) [2]: 11.37
- k' (retention factor) [2, 4]: 6.432
- log(k') [2, 4]: 0.808
- k' (retention factor) [2, 5]: 4.433
- log(k') [2, 5]: 0.647
- k' (retention factor) [2, 6]: 3.166
- log(k') [2, 6]: 0.501
- k' (retention factor) [2, 7]: 2.284
- log(k') [2, 7]: 0.359
- intercept log k'w at MeCN% = 0 [2]: 1.6998

Compound: CC(C)C[C@H](NC(=O)[C@H](Cc1c[nH]c2ccccc12)NC(=O)[C@H](C)N)C(=O)O [compound 10, TFA·H2N-Ala-Trp-Leu-OH] (H-Ala-Trp-Leu-OH)
- Hydrophobicity index (HI) [2]: 19.13
- k' (retention factor) [2, 8]: 7.397
- log(k') [2, 8]: 0.869
- k' (retention factor) [2, 9]: 5.507
- log(k') [2, 9]: 0.741
- k' (retention factor) [2, 10]: 4.188
- log(k') [2, 10]: 0.622
- k' (retention factor) [2, 11]: 3.191
- log(k') [2, 11]: 0.504
- intercept log k'w at MeCN% = 0 [2]: 2.3234

Compound: CC(C)C[C@H](NC(=O)[C@H](Cc1ccc(O)c(SC(F)(F)F)c1)NC(=O)[C@H](C)N)C(=O)O [compound 11, TFA·H2N-Ala-(CF3S)Tyr-Leu-OH]
- Hydrophobicity index (HI) [2]: 23.27
- k' (retention factor) [2, 11]: 9.198
- log(k') [2, 11]: 0.964
- k' (retention factor) [2, 12]: 5.352
- log(k') [2, 12]: 0.729
- k' (retention factor) [2, 13]: 4.091
- log(k') [2, 13]: 0.612
- k' (retention factor) [2, 14]: 3.149
- log(k') [2, 14]: 0.498
- intercept log k'w at MeCN% = 0 [2]: 2.7107
- ΔHI (HI(CF3S)AA – HIAA) [2]: ca. 12 units

Compound: CC(C)C[C@H](NC(=O)[C@H](Cc1c(SC(F)(F)F)[nH]c2ccccc12)NC(=O)[C@H](C)N)C(=O)O [compound 12, TFA·H2N-Ala-(CF3S)Trp-Leu-OH]
- Hydrophobicity index (HI) [2]: 27.15
- k' (retention factor) [2, 14]: 9.031
- log(k') [2, 14]: 0.956
- k' (retention factor) [2, 15]: 6.844
- log(k') [2, 15]: 0.835
- k' (retention factor) [2, 16]: 5.211
- log(k') [2, 16]: 0.717
- k' (retention factor) [2, 17]: 4.025
- log(k') [2, 17]: 0.605
- intercept log k'w at MeCN% = 0 [2]: 3.1793
- ΔHI (HI(CF3S)AA – HIAA) [2]: ca. 8 units

Compound: CF3S-tyramine [6e]
- increase of the acidity of the vicinal hydroxyl group [3]: 100 fold
